The values that follow come from patent publication US20070089847A1, “Anti-microbial paper products having a substituted 1,2-dihydroquinoline” (Novus International, Inc., priority 2005, published 2007).

Holding throughout (format): cell-based
The subject of assay [1] is Aspergillus niger ATCC 9642, Aspergillus flavus ATCC 9643, and Chaetomium globosum ATCC 6205. Briefly: ASTM D 2020 fungal resistance test of five biocides on treated glass fiber filter paper (Example 1). The following applies: for Observed Fungal Growth after 14 Days incubation at 28° C., 1: replicate 1; for Observed Fungal Growth after 14 Days incubation at 28° C., 2: replicate 2; for Observed Fungal Growth after 14 Days incubation at 28° C., 3: replicate 3. As to the method:
Five different biocides at varying concentrations were tested for fungal resistance using the ASTM D 2020 Standard Test Method for Mildew (Fungus) Resistance of Paper and Paperboard protocol. This test method was designed for the qualitative determination of mildew (fungus) resistance of paper and paperboard, particularly those types that have been given a fungus resistant treatment. Specific test conditions applied to this project are described below, but at all times the ASTM D 2020 test protocol was strictly followed.
All five biocides (Santoquin®, HMTBA-Cu, BIOX-AUSD, Tox-Guard*Dry, and Metasol-TK 100) were tested at three different concentrations (200, 400, and 600 ppm). Santoquin®, HMTBA-Cu, and BIOX-AUSD were diluted in dimethyl sulfoxide (DMSO), while Tox-Guard*Dry and Metasol-TK100 were diluted in water. DMSO was used a control diluent. The fungal inoculum was comprised of three different species: Aspergillus niger ATCC 9642, Aspergillus flavus ATCC 9643, and Chaetomium globosum ATCC 6205.
Glass fiber filter paper was treated with the individual test biocides at the respective concentrations listed in Table 1 and allowed to dry overnight. The filter paper carriers, tested in triplicate, were placed in Petri dishes on mineral salts agar and inoculated with the fungal inoculum. The samples were incubated at 28° C. for 2 weeks and examined daily during the first week of incubation for the growth of the test organisms.
(§1) If no growth was observed on a sample after the first week of incubation, the sample was incubated for an additional seven days. […] If, after two weeks, there was no detectable growth of test organisms, the sample was considered fungus resistant.

Assay [2] shares this test system. The experiment in a line: ASTM D 2020 fungal resistance test of Santoquin with Kathon 893 as control biocide (Example 2). The following applies: for Observed Fungal Growth after 14 Days incubation at 28° C.: replicates 1-3. As to the method:
One biocide sample, labeled Santoquin® was tested for fungal resistance using the ASTM D 2020 Standard Test Method for Mildew (Fungus) Resistance of Paper and Paperboard protocol. This test method was designed for the qualitative determination of mildew (fungus) resistance of paper and paperboard, particularly those types that have been given a fungus resistant treatment. Specific test conditions applied to this project are described below, but at all times the ASTM D 2020 test protocol was strictly followed.
The Santoquin® biocide was diluted with DMSO and tested at two different concentrations: 0.1% and 1.0%. The biocide Kathon 893 was diluted to 0.1% and 1.0% in water and used as a control biocide. DMSO was used as a control diluent. The fungal inoculum was comprised of three different species: Aspergillus niger ATCC 9642, Aspergillus flavus ATCC 9643, and Chaetomium globosum ATCC 6205.
Glass fiber filter paper was treated with two different concentrations (0.1% and 1.0%) of Santoquin® and allowed to dry overnight. The filter paper carriers, tested in triplicate, were placed in Petri dishes on mineral salts agar and inoculated with the fungal inoculum. The samples were incubated at 28° C. for 2 weeks and examined daily during the first week of incubation for the growth of the test organisms.
as §1

Assay [3] relates to Aspergillus niger ATCC 9642 and Aspergillus flavus ATCC 9643. Briefly: In vitro disk assay of antifungal properties, agar plates containing test agent (Example 3). Conditions: 48 hours at 25° C. As to the method: In this assay, paper disks were soaked in a fungal solution and placed on the surface of agar plates containing different concentration of the test agent. The radius of fungal growth radiating from each disk was considered indicative of the degree of inhibition by the agent relative to a control.
The test agents were diluted in DMSO or water and tested at several different concentrations. The test agents were added to the agar solution after sterilization, but prior to solidification. […] The plates were incubated for 48 hours at 25° C. The zones of fungal growth (or no growth) were analyzed and the minimum total inhibitory concentration (%) was estimated for each agent.

The mark [4] stands for this setting: both concentrations (0.1% and 1.0%).
Where [5] appears, read: all three concentrations (200, 400, and 600 ppm).

Molecules are shown by their SMILES.

`CCOc1ccc2c(c1)C(C)=CC(C)(C)N2` [Santoquin, 6-ethoxy-1,2-dihydro-2,2,4-trimethylquinoline]: in assay [1] (200 ppm), the “fungal growth at the end of two weeks” value is “fungal growth”; the “fungal resistance classification in the ASTM D 2020 test” value (from here on “fungal resistance classification”) was “fungus non-resistant”; the “Observed Fungal Growth after 14 Days incubation at 28° C., 1” value (“Observed Fungal Growth … at 28° C., 1” below) is “Growth”; the “Observed Fungal Growth after 14 Days incubation at 28° C., 2” value (shortened to “Observed Fungal Growth … at 28° C., 2”) is listed as “Growth”. Further, the “Observed Fungal Growth after 14 Days incubation at 28° C., 3” value (“Observed Fungal Growth … 3” for short) in assay [1] (200 ppm) is “Growth”. Besides, in assay [1] (400 and 600 ppm), the “fungal growth at the end of two weeks” value is on record as “no fungal growth” and the “fungal resistance classification” value is given as “fungal resistant”. Also, in assay [1] (400 ppm), the “Observed Fungal Growth … at 28° C., 1” value is “No Growth”; the “Observed Fungal Growth … at 28° C., 2” value was “No Growth”; the “Observed Fungal Growth … 3” value is listed as “No Growth”. For the same molecule, in assay [1] (600 ppm), the “Observed Fungal Growth … at 28° C., 1” value is recorded as “No Growth”; the “Observed Fungal Growth … at 28° C., 2” value is on record as “No Growth”; the “Observed Fungal Growth … 3” value is “No Growth”. Also, the “Observed Fungal Growth after 14 Days incubation at 28° C.” value in assay [2] (0.1%) is “No growth”. Besides, the “Observed Fungal Growth after 14 Days incubation at 28° C.” value in assay [2] (1.0%) was “No growth”. In addition, in assay [2] (setting [4]), the “fungal growth at the end of the two weeks” value is “no fungal growth” and the “fungal resistance classification” value was “fungal resistant”. Besides, the “Minimum Total Inhibitory Concentration (%)” value in assay [3] was over 0.5%.

Consider `CSCCC(O)C(=O)[O-].CSCCC(O)C(=O)[O-].[Cu+2]` (stereo not drawn) [Mintrex Cu, Cu(HMTBA)2], for which, in assay [1] (200 ppm), the “Observed Fungal Growth … at 28° C., 1” value is given as “Growth”; the “Observed Fungal Growth … at 28° C., 2” value is on record as “Growth”; the “Observed Fungal Growth … 3” value is on record as “Growth”. Besides, in assay [1] (400 ppm), the “Observed Fungal Growth … at 28° C., 1” value was “Growth”; the “Observed Fungal Growth … at 28° C., 2” value was “Growth”; the “Observed Fungal Growth … 3” value was “Growth”. Further, in assay [1] (600 ppm), the “Observed Fungal Growth … at 28° C., 1” value is listed as “Growth”; the “Observed Fungal Growth … at 28° C., 2” value is reported as “Growth”; the “Observed Fungal Growth … 3” value is on record as “Growth”. Besides, in assay [1] (setting [5]), the “fungal growth at the end of the two weeks” value is recorded as “fungal growth” and the “fungal resistance classification” value was “fungus non-resistant”. Further, the “Minimum Total Inhibitory Concentration (%)” value in assay [3] is on record as 0.5%.
